Key:
[1] = Plasma protein binding (rapid equilibrium dialysis); format: in vitro ADME; details: diluted to 10% in PBS, pH 7.4
Procedure: Human plasma was purchased from Innovative Research, Inc (Novi, MI, USA). Dog (beagle), rat (Sprague Dawley) and hamster (golden Syrian) plasma were procured from Valley Biomedical Products and Services, Inc. (Winchester, VA, USA). Mouse (BALB/c) plasma was collected in-house (animals sourced from Monash Animal Services, Monash University). All plasma was stored frozen at -20°C until use.
Plasma protein binding was assessed using rapid equilibrium dialysis (RED) according to methods published previously ([10]). […] Parallel spiked aliquots of 10% plasma were used to assess compound stability under the same incubation conditions. At the completion of the dialysis period, aliquots were taken from the donor and dialysate chambers to obtain measurements of the total and free concentration, respectively. The pH of the matrix and dialysate were confirmed to be within pH 7.4 ± 0.1 for the duration of the experiment.
Dialysis was conducted for 6 h and parallel non-dialyzed samples were included to confirm the absence of compound degradation. Binding to hepatocytes (at a cell density of 1 x 10^6 cells/mL) was calculated from the measured microsomal binding (at 1 mg/mL) as described previously ([26]). The fraction unbound (fu) was determined from the ratio of the dialysate to the donor concentration, assuming that the system was at steady state at the end of the dialysis period. For plasma, the data were corrected for the dilution factor to give a binding value for neat plasma according to previously published methods ([27]).

[2] = In vitro cytotoxicity assay; format: cell-based; details: human, MRC-5 human fetal lung fibroblasts
[3] = system: T. brucei brucei (bloodstream form); assay: In vitro activity against other kinetoplastid parasites; format: cell-based; details: Trypanosoma brucei, one range given for T. brucei brucei and T. b. rhodesiense
[4] = In vitro metabolism, liver microsomes; format: in vitro ADME, dog
Procedure: Compounds were spiked into microsomal matrix prepared in 0.1 M pH 7.4 phosphate buffer containing magnesium chloride (final concentration of 3.3 mM), equilibrated for 5-10 min at 37°C. The reaction was initiated with the addition of freshly prepared solution of NADPH (final 1.3 mM). Control samples without co-factor were included for comparison. Aliquots of the reaction mixtures were taken periodically over 60 min and quenched with acetonitrile containing internal standards (metolazone and diazepam). Quenched samples were maintained on ice for approximately 20-30 min, centrifuged (for 5 min) and the supernatant was analyzed by LC-MS.
In vitro intrinsic clearance (CLint, μL/min/mg or μL/min/10^6 cells) values were calculated from the apparent first order degradation rate constant divided by the microsome concentration or the hepatocyte cell number (10^6 viable cells/mL). In vitro CLint values were then divided by the fraction unbound in the in vitro test system (to give CLint,u) and scaled to in vivo values (mL/min/kg) using published physiological scaling factors ([28]). Blood clearance in each species was then calculated using the well-stirred model of hepatic extraction (equation 2) where Q is the hepatic blood flow and fu,blood is calculated from fu,plasma/B:P: [2] PredictedCLblood=Q x fu,blood x CLint,u/Q+fu,blood x CLint,u
Blood clearance values were converted to plasma clearance by multiplying by the B:P.

[5] = In vitro cytotoxicity assays, all cell lines tested; format: cell-based; details: mouse, human, African green monkey
OCT2 = molecular target: T1, OCT2 (Homo sapiens, UniProt O15244); assay: Drug transporter inhibition panel; format: in vitro ADME; details: 1 and 10 μM
T1 construct: Eurofins
T1 sequence (O15244 whole entry): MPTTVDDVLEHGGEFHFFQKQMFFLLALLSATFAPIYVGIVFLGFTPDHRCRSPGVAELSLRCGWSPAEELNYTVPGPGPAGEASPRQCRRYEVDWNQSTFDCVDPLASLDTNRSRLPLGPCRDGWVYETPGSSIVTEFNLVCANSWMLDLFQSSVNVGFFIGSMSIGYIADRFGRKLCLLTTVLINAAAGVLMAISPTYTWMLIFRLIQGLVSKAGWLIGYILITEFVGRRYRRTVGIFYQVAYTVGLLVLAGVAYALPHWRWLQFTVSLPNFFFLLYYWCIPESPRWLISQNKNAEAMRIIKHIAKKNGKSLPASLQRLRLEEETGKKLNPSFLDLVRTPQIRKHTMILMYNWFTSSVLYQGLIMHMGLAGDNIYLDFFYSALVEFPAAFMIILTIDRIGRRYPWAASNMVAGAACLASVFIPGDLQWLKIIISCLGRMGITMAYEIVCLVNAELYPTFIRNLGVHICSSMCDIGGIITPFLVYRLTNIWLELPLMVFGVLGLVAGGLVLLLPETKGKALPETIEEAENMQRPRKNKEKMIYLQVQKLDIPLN
Description: (§1) Listed values represent the percent change relative to the DMSO control activity. When an IC50 had to be determined, eight different concentrations were included. All values are the mean of assay readout duplicates.

MATE2-K = molecular target: T2, MATE2-K (Homo sapiens, UniProt Q86VL8); assay: Drug transporter inhibition panel; format: in vitro ADME
T2 construct: Eurofins
T2 sequence (Q86VL8 1-566 isoform Q86VL8-3): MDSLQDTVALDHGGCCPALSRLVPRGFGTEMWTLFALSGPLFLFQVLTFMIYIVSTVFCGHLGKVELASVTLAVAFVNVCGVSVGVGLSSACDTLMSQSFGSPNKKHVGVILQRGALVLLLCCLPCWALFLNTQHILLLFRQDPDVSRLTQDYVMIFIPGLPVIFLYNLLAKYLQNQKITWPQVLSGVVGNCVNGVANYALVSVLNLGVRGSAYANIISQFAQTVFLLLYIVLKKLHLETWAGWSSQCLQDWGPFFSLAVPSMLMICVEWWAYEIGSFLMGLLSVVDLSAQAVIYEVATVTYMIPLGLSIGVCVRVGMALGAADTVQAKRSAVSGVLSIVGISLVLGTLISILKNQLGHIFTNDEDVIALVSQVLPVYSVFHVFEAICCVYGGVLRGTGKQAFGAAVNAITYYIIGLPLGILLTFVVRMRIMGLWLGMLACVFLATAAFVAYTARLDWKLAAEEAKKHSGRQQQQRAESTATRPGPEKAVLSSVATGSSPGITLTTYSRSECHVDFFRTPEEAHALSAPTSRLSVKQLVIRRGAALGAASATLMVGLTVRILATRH
Description: as §1

BCRP = BCRP (Homo sapiens, UniProt Q9UNQ0); assay: Drug transporter inhibition panel; format: in vitro ADME; details: 1 and 10 μM
Sequence of BCRP (Q9UNQ0 whole entry, species assumed): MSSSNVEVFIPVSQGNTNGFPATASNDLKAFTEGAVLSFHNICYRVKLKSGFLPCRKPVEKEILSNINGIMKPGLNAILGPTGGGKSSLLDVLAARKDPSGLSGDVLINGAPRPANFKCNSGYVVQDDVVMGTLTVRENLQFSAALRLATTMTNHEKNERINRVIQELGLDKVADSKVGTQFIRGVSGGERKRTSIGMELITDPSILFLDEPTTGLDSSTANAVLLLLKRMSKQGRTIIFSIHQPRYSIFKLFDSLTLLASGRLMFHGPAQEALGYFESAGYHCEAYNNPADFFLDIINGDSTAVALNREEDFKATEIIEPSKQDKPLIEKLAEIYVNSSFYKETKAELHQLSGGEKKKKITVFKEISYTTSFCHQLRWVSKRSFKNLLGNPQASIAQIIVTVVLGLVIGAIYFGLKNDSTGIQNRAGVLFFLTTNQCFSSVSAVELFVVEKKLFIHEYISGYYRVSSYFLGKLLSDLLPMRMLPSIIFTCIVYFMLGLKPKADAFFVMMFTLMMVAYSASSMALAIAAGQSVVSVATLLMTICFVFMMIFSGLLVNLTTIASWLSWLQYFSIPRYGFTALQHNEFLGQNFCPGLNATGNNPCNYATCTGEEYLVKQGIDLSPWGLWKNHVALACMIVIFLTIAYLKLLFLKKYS
Description: as §1

OAT1 = molecular target: T3, OAT1 (Homo sapiens, UniProt Q4U2R8); assay: Drug transporter inhibition panel; format: in vitro ADME; details: 1 and 10 μM
T3 construct: Eurofins
T3 sequence (Q4U2R8 whole entry): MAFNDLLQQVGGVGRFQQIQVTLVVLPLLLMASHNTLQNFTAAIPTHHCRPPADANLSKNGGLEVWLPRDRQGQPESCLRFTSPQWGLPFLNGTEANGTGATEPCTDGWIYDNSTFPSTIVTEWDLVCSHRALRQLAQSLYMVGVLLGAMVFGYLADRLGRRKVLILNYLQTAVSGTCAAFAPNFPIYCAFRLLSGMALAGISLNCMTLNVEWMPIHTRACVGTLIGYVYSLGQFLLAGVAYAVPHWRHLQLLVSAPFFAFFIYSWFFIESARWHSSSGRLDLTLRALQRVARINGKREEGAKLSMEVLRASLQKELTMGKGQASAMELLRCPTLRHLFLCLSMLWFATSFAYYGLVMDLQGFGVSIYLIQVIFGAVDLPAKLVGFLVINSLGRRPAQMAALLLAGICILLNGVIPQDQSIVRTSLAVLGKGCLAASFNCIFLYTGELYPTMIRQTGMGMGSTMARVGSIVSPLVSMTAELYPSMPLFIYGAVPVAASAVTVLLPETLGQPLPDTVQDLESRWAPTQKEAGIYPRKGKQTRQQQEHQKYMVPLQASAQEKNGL
Description: as §1

OCT1 = molecular target: T4, OCT1 (Homo sapiens, UniProt O15245); assay: Drug transporter inhibition panel; format: in vitro ADME; details: 1 and 10 μM
T4 construct: Eurofins
T4 sequence (O15245 whole entry): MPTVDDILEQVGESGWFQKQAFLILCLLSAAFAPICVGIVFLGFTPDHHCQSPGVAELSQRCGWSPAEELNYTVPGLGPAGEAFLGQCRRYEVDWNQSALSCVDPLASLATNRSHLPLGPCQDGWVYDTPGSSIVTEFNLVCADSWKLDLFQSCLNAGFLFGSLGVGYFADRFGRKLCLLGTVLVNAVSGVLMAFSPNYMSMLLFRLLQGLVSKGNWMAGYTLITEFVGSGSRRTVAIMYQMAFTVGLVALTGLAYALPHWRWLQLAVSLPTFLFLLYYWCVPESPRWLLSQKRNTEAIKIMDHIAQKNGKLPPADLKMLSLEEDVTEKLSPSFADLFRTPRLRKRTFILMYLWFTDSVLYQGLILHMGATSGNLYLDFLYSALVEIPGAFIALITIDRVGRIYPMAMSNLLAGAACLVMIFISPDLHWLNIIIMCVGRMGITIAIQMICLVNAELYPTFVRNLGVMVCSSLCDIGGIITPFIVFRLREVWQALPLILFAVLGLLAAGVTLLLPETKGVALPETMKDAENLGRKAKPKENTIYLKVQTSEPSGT
Description: as §1

L. infantum = assay: PK/PD analysis of liver burden versus cumulative unbound AUC; format: in vivo, mice; details: Mouse – L. infantum; estimated using the fitted parameters
Description: To determine the correlation between the pharmacokinetic (PK) and pharmacodynamic (PD) data, repeat dose profiles in mice and hamsters following single and twice daily dosing were simulated using the fitted parameters.
Other parameters were less well correlated to efficacy, presumably given that none reflect the cumulative exposure profile with an extended treatment regimen. […] Results for mice infected with L. donovani were similar to those for L. infantum (Table S15).

Compound Cc1[nH]c2nc(N)nc(C)c2c1-c1ccc(C#N)c2c1OCO2 [DNDI-6174] has a fraction unbound at 24 h ([1]; BALB/c, mouse) of 0.12, a fraction unbound at 24 h ([1]; Sprague Dawley, rat) of 0.069 and a fraction unbound at 24 h ([1]; beagle, dog) of 0.05. For the same compound, the fraction unbound at 24 h ([1]; golden Syrian, hamster) was 0.09, the fraction unbound at 24 h ([1]; human) was 0.059 and the CC50 [2] was greater than 64 µM. The EC50 [3] was 5 to 20 µM, the “Microsome predicted in vivo CLplasma” value ([4]; Dog) was 0.91 mL/min/kg and the “In vitro Microsome CLint” value ([4]; Dog, 2 independent experiments) was 4.8 ± 0.47 µL/min/mg. The microsomal CLint at 0.5 µM ([4]; dog, liver microsomes, pH 7.4, Dog, 2 independent experiments, read-out: In vitro Microsome CLint) was 8.3 ± 0.65 µL/min/mg, the CC50 [5] was greater than 37 µM and the activity remaining (OCT2) was greater than 50%. For the same compound, the IC50 (MATE2-K) was 0.88 µM, the activity remaining (BCRP) was greater than 50% and the activity remaining (OAT1) was greater than 50%. For the same compound, the activity remaining (OCT1) was greater than 50% and the “unbound ED95” value (L. infantum) was 27.
